The nature of this data set: pH dependent solubility of Compound A. The format is physicochemical. The source says:
The pH dependent solubility and potential rapid release in the stomach of Compound A causes difficulties in the formulation or oral dosage forms. It is desirable that release is controlled to take place over a period of hours. Such a formulation would require dosing only once a day, and this is likely to improve patient compliance.

Structures are written as SMILES. In brackets after ≈: the same amount, converted by molar mass.

A word on the solubility: it is the dissolved amount per volume that the medium holds. A lower solubility goes with a poorly soluble substance. With `CN(CCOc1ccc(CC2SC(=O)NC2=O)cc1)c1ccccn1` (centres unmarked) [Compound A, 5-[4-[2-(N-methyl-N-(2 pyridyl)amino)ethoxy]benzyl]thiazolidine-2,4-dione], the solubility was about 80 µg/mL (≈ 0.224 mM) (aqueous buffer, pH 7, near neutral pH of the small intestine) and about 5000 µg/mL (≈ 14 mM) (simulated gastric fluid, pH 2, acidic regions associated with the stomach).
